Patent US20130171098A1, “Cyclopropyl Fused Indolobenzazepine HCV NS5B Inhibitors” (priority 2006, published 2013)
pEC50, pIC50: −log10 of the molar value. Read-outs that look alike come from different tables or passages of the source.

Key:
[1] = target: T1, HCV NS5B RdRp genotype 1b (Hepatitis C virus genotype 1b, UniProt Q9WMX2); test: HCV NS5B RdRp enzyme assay (standard / modified); type: biochemical
T1 construct: The protein was expressed with an 18 amino acid C-terminal truncation to enhance the solubility; made in house; host or cells: E. coli BL21(DE3), pET21a vector
T1 sequence (Q9WMX2 2420-2992): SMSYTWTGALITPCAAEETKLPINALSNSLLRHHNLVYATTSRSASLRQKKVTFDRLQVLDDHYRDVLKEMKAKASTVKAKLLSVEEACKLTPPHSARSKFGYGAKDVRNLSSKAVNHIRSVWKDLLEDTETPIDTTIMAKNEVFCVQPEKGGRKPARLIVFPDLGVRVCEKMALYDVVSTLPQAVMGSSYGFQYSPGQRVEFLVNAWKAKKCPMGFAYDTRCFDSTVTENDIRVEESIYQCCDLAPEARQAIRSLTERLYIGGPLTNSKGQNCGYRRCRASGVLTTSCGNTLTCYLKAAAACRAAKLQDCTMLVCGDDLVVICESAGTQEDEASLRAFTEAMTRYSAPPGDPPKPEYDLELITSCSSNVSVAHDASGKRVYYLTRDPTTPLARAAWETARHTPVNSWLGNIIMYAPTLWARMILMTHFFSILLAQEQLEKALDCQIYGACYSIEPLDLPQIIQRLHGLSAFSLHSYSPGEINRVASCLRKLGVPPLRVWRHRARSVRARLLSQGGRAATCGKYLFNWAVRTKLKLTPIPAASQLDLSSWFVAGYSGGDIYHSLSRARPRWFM

HCV replicon cells = test: HCV replicon FRET / luciferase assay; type: cell-based, Hepatitis C virus
[2] = HCV NS5B RdRp genotype 1b enzyme
[3] = HCV replicon cells, FRET or luciferase activity
[4] = HCV NS5B RdRp genotype 1b enzyme, read-out: IC50
[5] = Hepatitis C virus, HCV replicon cells, FRET or luciferase activity, read-out: EC50

For `CNS(=O)(=O)NC(=O)c1ccc2c(C3CCCCC3)c3n(c2c1)CC1(C(=O)N2C4CCC2CN(C)C4)CC1c1cc(OC)ccc1-3` (centres unmarked) [drawing 50], the pIC50 [1, 2] was 6.30 to 9.00 and the pEC50 (HCV replicon cells; [3]) was 6.30 to 9.00.

Work on `COc1ccc2c(c1)C1CC1(C(=O)N1C3CCC1CN(C)C3)Cn1c-2c(C2CCCCC2)c2ccc(C(=O)NS(N)(=O)=O)cc21` (centres unmarked) [drawing 63] yielded a pIC50 [1, 2] of 6.30 to 9.00 and a pEC50 (HCV replicon cells; [3]) of 6.30 to 9.00.

Molecule `COc1ccc2c(c1)C1CC1(C(=O)N1C3CCC1CN(Cc1ccccc1)C3)Cn1c-2c(C2CCCCC2)c2ccc(C(=O)NS(=O)(=O)N(C)C)cc21` (centres unmarked) [drawing 58] has a pIC50 [1, 2] of 6.30 to 9.00 and a pEC50 (HCV replicon cells; [3]) of 6.30 to 9.00.

Work on `COc1ccc2c(c1)C1CC1(C(=O)N1C3CCC1CN(C)C3)Cn1c-2c(C2CCCCC2)c2ccc(C(=O)NS(=O)(=O)C3CC3)cc21` (centres unmarked) yielded a pIC50 [1] of 6.30 to 9.00 and a pEC50 (HCV replicon cells; Hepatitis C virus) of 6.30 to 9.00.

`COc1ccc2c(c1)C1CC1(C(=O)N1C3CCC1CN(C)C3)Cn1c-2c(C2CCCCC2)c2ccc(C(=O)NS(=O)(=O)N3CCN(C)CC3)cc21` (centres unmarked) [drawing 54] gave a pIC50 [1, 2] of 6.30 to 9.00 and a pEC50 (HCV replicon cells; [3]) of 6.30 to 9.00.

Work on `COc1ccc2c(c1)C1CC1(C(=O)N1C3CCC1CN(C(C)=O)C3)Cn1c-2c(C2CCCCC2)c2ccc(C(=O)NS(=O)(=O)N(C)C)cc21` (centres unmarked) [drawing 60] yielded a pIC50 [1, 2] of 6.30 to 9.00 and a pEC50 (HCV replicon cells; [3]) of 6.30 to 9.00.

`COc1ccc2c(c1)C1CC1(C(=O)N1[C@@H]3CC[C@H]1CN(Cc1ccccc1)C3)Cn1c-2c(C2CCCCC2)c2ccc(C(=O)NS(=O)(=O)N(C)C)cc21` (some centres unmarked) showed a pIC50 [1] of 6.30 to 9.00 and a pEC50 (HCV replicon cells; Hepatitis C virus) of 6.30 to 9.00.

Molecule `COc1ccc2c(c1)C1CC1C(C(=O)N1C3CCC1CN(C)C3)n1c-2c(C2CCCCC2)c2ccc(C(=O)NS(=O)(=O)C3CC3)cc21` (centres unmarked) [drawing 113] has a pIC50 [1, 2] of 6.30 to 9.00 and a pEC50 (HCV replicon cells; [3]) of 6.30 to 9.00.

With `COc1ccc2c(c1)C1CC1(C(=O)N1C3CCC1CN(c1ccccn1)C3)Cn1c-2c(C2CCCCC2)c2ccc(C(=O)NS(=O)(=O)N(C)C)cc21` (centres unmarked) [drawing 67] the pIC50 [1, 2] was 6.30 to 9.00 and the pEC50 (HCV replicon cells; [3]) was 6.30 to 9.00.

With `CN1CC2CCC(C1)N2C(=O)C12CC1c1cc(OCc3ccccc3)ccc1-c1c(C3CCCCC3)c3ccc(C(=O)NS(=O)(=O)N(C)C)cc3n1C2` (centres unmarked) [drawing 69] the pIC50 [1, 2] was 6.30 to 9.00 and the pEC50 (HCV replicon cells; [3]) was 6.30 to 9.00.

Work on `COc1ccc2c(c1)C1CC1(C(=O)N1C3CCC1CN(C)C3)Cn1c-2c(C2CCCCC2)c2ccc(C(=O)NS(=O)(=O)N3CCOCC3)cc21` (centres unmarked) [drawing 53] yielded a pIC50 [1, 2] of 6.30 to 9.00 and a pEC50 (HCV replicon cells; [3]) of 6.30 to 9.00.

Work on `COc1ccc2c(c1)C1CC1(C(=O)N1C3CCC1CN(C)C3)Cn1c-2c(C2CCCCC2)c2ccc(C(=O)NS(=O)(=O)N3CCN(C)CC3)cc21` (centres unmarked) [drawing 32] yielded a pIC50 [1] of 6.30 to 9.00 and a pEC50 (HCV replicon cells; Hepatitis C virus) of 6.30 to 9.00.

Work on `CNS(=O)(=O)NC(=O)c1ccc2c(C3CCCCC3)c3n(c2c1)CC1(C(=O)N2[C@@H]4CC[C@H]2CN(C)C4)CC1c1cc(OC)ccc1-3` (some centres unmarked) [drawing 55] yielded a pIC50 [1] of 6.30 to 9.00 and a pEC50 (HCV replicon cells; Hepatitis C virus) of 6.30 to 9.00.

In the case of `CN1CC2CCC(C1)N2C(=O)C12CC1c1cc(O)ccc1-c1c(C3CCCCC3)c3ccc(C(=O)NS(=O)(=O)N(C)C)cc3n1C2` (centres unmarked) [drawing 70], the pIC50 [1, 2] was 6.30 to 9.00 and the pEC50 (HCV replicon cells; [3]) was 6.30 to 9.00.

In the case of `COc1ccc2c(c1)C1CC1(C(=O)N1C3CCC1CN(C)C3)Cn1c-2c(C2CCCCC2)c2ccc(C(=O)NS(=O)(=O)N3C[C@@H](C)O[C@@H](C)C3)cc21` (some centres unmarked) [drawing 107], the pIC50 [1, 2] was 6.30 to 9.00 and the pEC50 (HCV replicon cells; [3]) was 6.30 to 9.00.

`COc1ccc2c(c1)C1CC1(C(=O)N1C3CCC1CN(CC1CC1)C3)Cn1c-2c(C2CCCCC2)c2ccc(C(=O)NS(=O)(=O)N(C)C)cc21` (centres unmarked) [drawing 40] was tested, and the pIC50 [1] was 6.30 to 9.00 and the pEC50 (HCV replicon cells; Hepatitis C virus) was 6.30 to 9.00.

Work on `COc1ccc2c(c1)C1CC1(C(=O)N1C3CCC1CN(C)C3)Cn1c-2c(C2CCCCC2)c2ccc(C(=O)NS(=O)(=O)N3CCCCC3)cc21` (centres unmarked) [drawing 95] yielded a pIC50 [1] of 6.30 to 9.00 and a pEC50 (HCV replicon cells; Hepatitis C virus) of 6.30 to 9.00.

With `COc1ccc2c(c1)C1CC1(C(=O)N1C3CCC1CN(C)C3)Cn1c-2c(C2CCCCC2)c2ccc(C(=O)NS(=O)(=O)N3CCCCC3)cc21` (centres unmarked) [drawing 108] the pIC50 [1, 2] was 6.30 to 9.00 and the pEC50 (HCV replicon cells; [3]) was 6.30 to 9.00.

Molecule `COc1ccc2c(c1)C1CC1(C(=O)N1C3CCC1CN(C)C3)Cn1c-2c(C2CCCCC2)c2ccc(C(=O)NS(=O)(=O)N3C[C@@H](C)O[C@@H](C)C3)cc21` (some centres unmarked) [drawing 94] has a pIC50 [1] of 6.30 to 9.00 and a pEC50 (HCV replicon cells; Hepatitis C virus) of 6.30 to 9.00.

`COc1ccc2c(c1)C1CC1(C(=O)N1C3CCC1CN(C)C3)Cn1c-2c(C2CCCCC2)c2ccc(C(=O)NS(=O)(=O)NC3CC3)cc21` (centres unmarked) [drawing 42] gave a pIC50 [1] of 6.30 to 9.00 and a pEC50 (HCV replicon cells; Hepatitis C virus) of 6.30 to 9.00.

Work on `COc1ccc2c(c1)C1CC1(C(=O)N1C3CCC1CN(C)C3)Cn1c-2c(C2CCCCC2)c2ccc(C(=O)NS(=O)(=O)N3CCCC3)cc21` (centres unmarked) yielded a pIC50 [1] of 6.30 to 9.00 and a pEC50 (HCV replicon cells; Hepatitis C virus) of 6.30 to 9.00.

For `COc1ccc2c(c1)C1CC1(C(=O)N1CC3CCC(C1)N3C)Cn1c-2c(C2CCCCC2)c2ccc(C(=O)NS(=O)(=O)N(C)C)cc21` (centres unmarked), the pIC50 [1] was 6.30 to 9.00 and the pEC50 (HCV replicon cells; Hepatitis C virus) was 6.30 to 9.00.

For `CCC(C)S(=O)(=O)NC(=O)c1ccc2c(C3CCCCC3)c3n(c2c1)C[C@@]1(C(=O)N2C4CCC2CN(C)C4)C[C@H]1c1cc(OC)ccc1-3` (some centres unmarked) [drawing 132], the pIC50 [1] was 6.30 to 9.00 and the pEC50 (HCV replicon cells; Hepatitis C virus) was 6.30 to 9.00.

With `COc1ccc2c(c1)[C@H]1C[C@@]1(C(=O)N1[C@@H]3CC[C@H]1CN(C)C3)Cn1c-2c(C2CCCCC2)c2ccc(C(=O)NS(=O)(=O)N(C)C)cc21` the pIC50 [1, 4] was 6.30 to 9.00 and the pEC50 (HCV replicon cells; [5]) was 6.30 to 9.00.

Work on `CCS(=O)(=O)NC(=O)c1ccc2c(C3CCCCC3)c3n(c2c1)CC1(C(=O)N2C4CCC2CN(C)C4)CC1c1cc(OC)ccc1-3` (centres unmarked) [drawing 91] yielded a pIC50 [1] of 6.30 to 9.00 and a pEC50 (HCV replicon cells; Hepatitis C virus) of 6.30 to 9.00.

`COc1ccc2c(c1)C1CC1(C(=O)N1[C@@H]3CC[C@H]1CN(S(C)(=O)=O)C3)Cn1c-2c(C2CCCCC2)c2ccc(C(=O)NS(=O)(=O)N(C)C)cc21` (some centres unmarked) was tested, and the pIC50 [1] was 6.30 to 9.00 and the pEC50 (HCV replicon cells; Hepatitis C virus) was 6.30 to 9.00.

Work on `COc1ccc2c(c1)C1CC1(C(=O)N1C3CCC1CN(C)C3)Cn1c-2c(C2CCCCC2)c2ccc(C(=O)NS(=O)(=O)N(C)C)cc21` (centres unmarked) [drawing 46] yielded a pIC50 [1, 4] of 6.30 to 9.00 and a pEC50 (HCV replicon cells; [5]) of 6.30 to 9.00.

In the case of `CCC(C)S(=O)(=O)NC(=O)c1ccc2c(C3CCCCC3)c3n(c2c1)C[C@@]1(C(=O)N2C4CCC2CN(C)C4)C[C@H]1c1cc(OC)ccc1-3` (some centres unmarked) [drawing 133], the pIC50 [1, 2] was 6.30 to 9.00 and the pEC50 (HCV replicon cells; [3]) was 6.30 to 9.00.

In the case of `COc1ccc2c(c1)C1CC1(C(=O)N1C3CCC1CN(C)C3)Cn1c-2c(C2CCCCC2)c2ccc(C(=O)NS(=O)(=O)N(C)C)cc21` (centres unmarked) [drawing 24], the pIC50 [1, 4] was 6.30 to 9.00 and the pEC50 (HCV replicon cells; HCV replicon cells, FRET or luciferase activity, read-out: EC50) was 6.30 to 9.00.

Work on `COc1ccc2c(c1)C1CC1(C(=O)N1C3CCC1CN(C)C3)Cn1c-2c(C2CCCCC2)c2ccc(C(=O)NS(C)(=O)=O)cc21` (centres unmarked) [drawing 89] yielded a pIC50 [1] of 6.30 to 9.00 and a pEC50 (HCV replicon cells; Hepatitis C virus) of 6.30 to 9.00.

In the case of `CCN(CC)C(=O)N1CC2CCC(C1)N2C(=O)C12CC1c1cc(OC)ccc1-c1c(C3CCCCC3)c3ccc(C(=O)NS(=O)(=O)N4CCN(C)CC4)cc3n1C2` (centres unmarked) [drawing 93], the pIC50 [1] was 6.30 to 9.00 and the pEC50 (HCV replicon cells; Hepatitis C virus) was 6.30 to 9.00.
